The record followed here is patent publication US20230143612A1 (Arbutus Biopharma Corporation, priority 2020, published 2023).

Molecules are shown by their SMILES. pIC50: −log10 of the molar value.

PD-L1 His protein / PD-1 Fc protein, sequence (Q9NZQ7 19-238 limits assumed): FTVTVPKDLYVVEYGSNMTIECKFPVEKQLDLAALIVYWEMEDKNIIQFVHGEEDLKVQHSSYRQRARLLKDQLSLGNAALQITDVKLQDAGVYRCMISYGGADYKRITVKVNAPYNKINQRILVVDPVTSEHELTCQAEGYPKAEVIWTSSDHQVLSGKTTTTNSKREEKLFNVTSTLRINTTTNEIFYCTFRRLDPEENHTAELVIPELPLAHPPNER

In this assay the target is PD-L1 His protein / PD-1 Fc protein (Homo sapiens, UniProt Q9NZQ7). The experiment in a line: HTRF Assay (PD-1/PD-L1 interaction). The assay is classed as binding. As to conditions: PD-L1 His 6 nM, PD-1 Fc 6 nM. The essentials:
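HTRF: PD-L1 His (6 nM final), compound (3-fold dilutions, 20 μM to 0.001 μM final) and PD-1 Fc (6 nM final) preincubated 15 min at room temperature. Anti-human IgG-XL665 and anti-6HIS Tb cryptate (mixed at 6.7 nM and 0.35 nM) then added for 1 h at room temperature before reading.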
For orientation: TR-FRET usually uses a lanthanide donor and a delayed reading to cut background.
By pIC50 is commonly meant the IC50 on a negative log10 scale, so that one unit is a factor of ten. A lower pIC50 goes with a high IC50. For the compound `COc1cc(-c2cccc(-c3cccc(-c4ccn5c(=O)c(CN[C@H]6C[C@](C)(O)C6)cnc5c4)c3Cl)c2Cl)cnc1CN[C@H]1C[C@](C)(O)C1` [Example 361, 8-(2,2′-Dichloro-3′-(6-((((1r,3r)-3-hydroxy-3-methylcyclobutyl)amino)methyl)-5-methoxypyridin-3-yl)-[1,1′-biphenyl]-3-yl)-3-((((1r,3r)-3-hydroxy-3-methylcyclobutyl)amino)methyl)-4H-pyrido[1,2-a]pyrimidin-4-one], the negative-log IC50 (pIC50) is 7.41.
The figure for `COc1nc(-c2cccc(-c3cccc(-c4ccn5c(=O)c(CNCC6(CO)COC6)cnc5c4)c3Cl)c2Cl)ccc1CNC[C@@H]1CCC(=O)N1` [Example 244, (S)-8-(2,2′-dichloro-3′-(6-methoxy-5-((((5-oxopyrrolidin-2-yl)methyl)amino)-methyl)-pyridin-2-yl)-[1,1′-biphenyl]-3-yl)-3-((((3-(hydroxymethyl)oxetan-3-yl)-methyl)-amino)-methyl)-4H-pyrido[1,2-a]pyrimidin-4-one] is 9.22.
In turn, `CNC(=O)C(C)(C)NCc1cc(=O)n2ccc(-c3cccc(-c4cccc(-c5ccc(CNC[C@@H]6CCC(=O)N6)c(OC)n5)c4Cl)c3Cl)cc2n1` [Example 341, (S)-2-(((8-(2,2′-Dichloro-3′-(6-methoxy-5-((((5-oxopyrrolidin-2-yl)methyl)amino)methyl)pyridin-2-yl)-[1,1′-biphenyl]-3-yl)-4-oxo-4H-pyrido[1,2-a]pyrimidin-2-yl)methyl)amino)-N,2-dimethylpropanamide] showed a pIC50 of 10.00.
The figure for `COc1nc(-c2cccc(-c3cccc(-c4ccn5c(=O)c(CN[C@@H](CO)C(=O)O)cnc5c4)c3Cl)c2Cl)ccc1CNCCO` [Example 191, ((8-(2,2′-Dichloro-3′-(5-(((2-hydroxyethyl)amino)methyl)-6-methoxypyridin-2-yl)-[1,1′-biphenyl]-3-yl)-4-oxo-4H-pyrido[1,2-a]pyrimidin-3-yl)methyl)-L-serine] is 10.00.
The figure for `COc1nc(-c2cccc(-c3cccc(-c4ccc5ncc(CNC[C@@H]6CCC(=O)N6)n5c4)c3Cl)c2Cl)ccc1CNC[C@@H]1CCC(=O)N1` [Example 389, (5S)-5-[[[6-[2-Chloro-3-[2-chloro-3-[3-[[[(2S)-5-oxopyrrolidin-2-yl]methylamino]methyl]imidazo[1,2-a]pyridin-6-yl]phenyl]phenyl]-2-methoxy-3-pyridyl]methylamino]methyl]pyrrolidin-2-one] is 7.40; for `NC1(Cc2ccc(-c3cccc(-c4cccc(-c5ccn6c(=O)c(CNC[C@@H]7CCC(=O)N7)cnc6c5)c4Cl)c3Cl)cc2)CC1` [Example 237, (S)-8-(4″-((1-Aminocyclopropyl)methyl)-2,2′-dichloro-[1,1′:3′,1″-terphenyl]-3-yl)-3-((((5-oxopyrrolidin-2-yl)methyl)amino)methyl)-4H-pyrido[1,2-a]pyrimidin-4-one] it is 6.05; for `COc1nc(-c2cccc(-c3cccc(-c4cc5c(=O)n(C)c(CN6CC(C(C)(C)O)C6)nn5c4)c3Cl)c2Cl)ccc1CNC[C@@H]1CCC(=O)N1` [Example 461, 6-[2-Chloro-3-[2-chloro-3-[6-methoxy-5-[[[(2S)-5-oxopyrrolidin-2-yl]methylamino]methyl]-2-pyridyl]phenyl]phenyl]-2-[[3-(1-hydroxy-1-methyl-ethyl)azetidin-1-yl]methyl]-3-methyl-pyrrolo[2,1-f][1,2,4]triazin-4-one] it is 7.89.
For `COc1nc(-c2cccc(-c3cccc(-c4ccn5c(=O)c(CNCC(C)(C)O)cnc5c4)c3Cl)c2Cl)ccc1CNC[C@@H]1CCC(=O)N1` [Example 133, (S)-8-(2,2′-Dichloro-3′-(6-methoxy-5-((((5-oxopyrrolidin-2-yl)methyl)amino)methyl)pyridin-2-yl)-[1,1′-biphenyl]-3-yl)-3-(((2-hydroxy-2-methylpropyl)amino)methyl)-4H-pyrido[1,2-a]pyrimidin-4-one] the value was 8.82; for `COc1nc(-c2cccc(-c3cccc(-c4ccn5c(=O)c(CNC[C@H](C)O)cnc5c4)c3Cl)c2Cl)ccc1CNC[C@H](C)O` [Example 185, 8-(2,2′-Dichloro-3′-(5-((((S)-2-hydroxypropyl)amino)methyl)-6-methoxypyridin-2-yl)-[1,1′-biphenyl]-3-yl)-3-((((S)-2-hydroxypropyl)amino)methyl)-4H-pyrido[1,2-a]pyrimidin-4-one], 8.92.
As to `COc1nc(-c2cccc(-c3cccc(-c4ccc5nc(CNC[C@H](C)O)cn5n4)c3Cl)c2Cl)ccc1CNC[C@H](C)O` [Example 340, (2S)-1-[[6-[2-Chloro-3-[2-chloro-3-[2-[[[(2S)-2-hydroxypropyl]amino]methyl]imidazo[1,2-b]pyridazin-6-yl]phenyl]phenyl]-2-methoxy-3-pyridyl]methylamino]propan-2-ol], the pIC50 is 8.46.
For `COc1nc(-c2cccc(-c3cccc(-c4ccn5c(=O)c(CNC[C@@H]6CCC(=O)N6)cnc5c4)c3Cl)c2Cl)ccc1CN1CC[C@@H](O)C1` [Example 170, 8-(2,2′-Dichloro-3′-(5-(((R)-3-hydroxypyrrolidin-1-yl)methyl)-6-methoxypyridin-2-yl)-[1,1′-biphenyl]-3-yl)-3-(((((S)-5-oxopyrrolidin-2-yl)methyl)amino)methyl)-4H-pyrido[1,2-a]pyrimidin-4-one], the negative logarithm of the IC50 (pIC50) is 9.52.
The figure for `COc1nc(-c2cccc(-c3cccc(-c4cc5c(=O)n(C)c(CNC6CC(C)(O)C6)nn5c4)c3Cl)c2Cl)cc(F)c1CNC[C@@H]1CCC(=O)N1` (stereo partly drawn) [compound 480, (S)-6-(2,2′-dichloro-3′-(4-fluoro-6-methoxy-5-((((5-oxopyrrolidin-2-yl)methyl)amino)methyl)pyridin-2-yl)-[1,1′-biphenyl]-3-yl)-2-(((3-hydroxy-3-methylcyclobutyl)amino)methyl)-3-methylpyrrolo[2,1-f][1,2,4]triazin-4(3H)-one] is 7.16; for `COc1nc(-c2cccc(-c3cccc(-c4ccc5nc(CNC[C@@H]6CCC(=O)N6)cc(=O)n5c4)c3Cl)c2Cl)ccc1CNC[C@@H]1CCC(=O)N1` [Example 212, 7-(2,2′-Dichloro-3′-(6-methoxy-5-(((((S)-5-oxopyrrolidin-2-yl)methyl)amino)methyl)pyridin-2-yl)-[1,1′-biphenyl]-3-yl)-2-(((((S)-5-oxopyrrolidin-2-yl)methyl)amino)methyl)-4H-pyrido[1,2-a]pyrimidin-4-one] it is 10.00.
The compound `COc1nc(-c2cccc(-c3cccc(-c4ccc5nc(CN[C@H]6C[C@](C)(O)C6)cc(=O)n5c4)c3Cl)c2Cl)ccc1CNC[C@@H]1CCC(=O)N1` [Example 325, 7-(2,2′-dichloro-3′-(6-methoxy-5-(((((S)-5-oxopyrrolidin-2-yl)methyl)amino)methyl)pyridin-2-yl)-[1,1′-biphenyl]-3-yl)-2-((((1r,3r)-3-hydroxy-3-methylcyclobutyl)amino)methyl)-4H-pyrido[1,2-a]pyrimidin-4-one] had a negative logarithm of the IC50 (pIC50) of 10.00.
The figure for `COc1nc(-c2cccc(-c3cccc(-c4ccc5c(CNC[C@@H]6CCC(=O)N6)cn(C)c5n4)c3Cl)c2Cl)ccc1CNC[C@@H]1CCC(=O)N1` [Example 388, (5S)-5-[[[6-[2-Chloro-3-[2-chloro-3-[1-methyl-3-[[[(2S)-5-oxopyrrolidin-2-yl]methylamino]methyl]pyrrolo[2,3-b]pyridin-6-yl]phenyl]phenyl]-2-methoxy-3-pyridyl]methylamino]methyl]pyrrolidin-2-one] is 6.21.
